Test results reported in PubChem BioAssay AID256 (DTP/NCI, 2004).
“And” between values parts separate entries of the source, which are not always exact repeats. Equal entries are not always repeated. Toxic doses and inconclusive results are not listed. Rule for the calls: active = survival T/C of 150% or more; inactive = T/C below 125% in these data.

Test system: CD2F1 mice, L1210 leukemia ip, survival T/C
Assay: NCI In Vivo Anticancer Drug Screen. Data for tumor model L1210 Leukemia (intraperitoneal) in CD2F1 (CDF1) mice
Details: higher = longer survival
Summary of the method: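 Vehicle-treated tumor-bearing mice served as controls (C) for compound-treated mice (T). Reported figure is T divided by C.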

Measured: T/C

CC(C)N1C(=O)N(Cl)C2C1N(Cl)C(=O)N2Cl (stereo not drawn)
inactive: endpoint: median survival time, dose: 1.5 mg/kg/injection, schedule: Q01DX009 (ip), vehicle: saline with Tween-80 101 % of control | endpoint: median survival time, dose: 3.0 mg/kg/injection, schedule: Q01DX009 (ip), vehicle: saline with Tween-80 102 % of control | endpoint: median survival time, dose: 6.0 mg/kg/injection, schedule: Q01DX009 (ip), vehicle: saline with Tween-80 93 % of control | endpoint: median survival time, dose: 12.0 mg/kg/injection, schedule: Q01DX009 (ip), vehicle: saline with Tween-80 103 % of control | endpoint: median survival time, dose: 24.0 mg/kg/injection, schedule: Q01DX009 (ip), vehicle: saline with Tween-80 104 % of control | endpoint: median survival time, dose: 25.0 mg/kg/injection, schedule: Q01DX009 (ip), vehicle: saline with Tween-80 100 % of control

O=C(NNC(=O)c1cccc(C(=O)NNC(=O)c2ccc(Cl)c(Cl)c2)n1)c1ccc(Cl)c(Cl)c1
inactive: endpoint: median survival time, dose: 43.2 mg/kg/injection, schedule: Q01DX005 (ip), vehicle: Klucel (hydroxypropylcellulose) (HPC) 110 % of control | endpoint: median survival time, dose: 72.0 mg/kg/injection, schedule: Q01DX005 (ip), vehicle: Klucel (hydroxypropylcellulose) (HPC) 115 % of control | endpoint: median survival time, dose: 120.0 mg/kg/injection, schedule: Q01DX005 (ip), vehicle: Klucel (hydroxypropylcellulose) (HPC) 115 % of control and 116 % of control | endpoint: median survival time, dose: 200.0 mg/kg/injection, schedule: Q01DX005 (ip), vehicle: Klucel (hydroxypropylcellulose) (HPC) 120 % of control and 86 % of control | endpoint: median survival time, dose: 333.33 mg/kg/injection, schedule: Q01DX005 (ip), vehicle: Klucel (hydroxypropylcellulose) (HPC) 92 % of control

Nc1nc(N)c(-c2ccc(Cl)c(Cl)c2)c(/C=C/C=C/c2cccnc2)n1
inactive: endpoint: mean survival time, dose: 50.0 mg/kg/injection, schedule: Q01DX009 (ip), vehicle: saline with Tween-80 110 % of control | endpoint: mean survival time, dose: 100.0 mg/kg/injection, schedule: Q01DX009 (ip), vehicle: saline with Tween-80 95 % of control

CCOC(=O)c1c(NC(C)=O)sc2c1CCCC2
inactive: endpoint: mean survival time, dose: 100.0 mg/kg/injection, schedule: Q04DX003 (ip), vehicle: saline with Tween-80 97 % of control | endpoint: mean survival time, dose: 200.0 mg/kg/injection, schedule: Q04DX003 (ip), vehicle: saline with Tween-80 106 % of control

CN1CCC(O)(c2ccccc2C2=NC(C)(C)CO2)CC1
inactive: endpoint: mean survival time, dose: 50.0 mg/kg/injection, schedule: Q04DX002 (ip), vehicle: saline with Tween-80 96 % of control | endpoint: mean survival time, dose: 100.0 mg/kg/injection, schedule: Q01DX001 (ip), vehicle: saline with Tween-80 103 % of control | endpoint: mean survival time, dose: 100.0 mg/kg/injection, schedule: Q04DX002 (ip), vehicle: saline with Tween-80 101 % of control | endpoint: mean survival time, dose: 200.0 mg/kg/injection, schedule: Q01DX001 (ip), vehicle: saline with Tween-80 102 % of control | endpoint: mean survival time, dose: 200.0 mg/kg/injection, schedule: Q04DX002 (ip), vehicle: saline with Tween-80 108 % of control

COc1ccc([NH-])cc1.COc1ccc([NH-])cc1.[Br][Pt+2][Br]
inactive: endpoint: mean survival time, dose: 3.12 mg/kg/injection, schedule: Q04DX003 (ip), vehicle: distilled water + Tween-80 111 % of control | endpoint: mean survival time, dose: 6.25 mg/kg/injection, schedule: Q04DX003 (ip), vehicle: distilled water + Tween-80 108 % of control | endpoint: mean survival time, dose: 12.5 mg/kg/injection, schedule: Q04DX003 (ip), vehicle: distilled water + Tween-80 114 % of control | endpoint: mean survival time, dose: 25.0 mg/kg/injection, schedule: Q04DX003 (ip), vehicle: distilled water + Tween-80 111 % of control | endpoint: mean survival time, dose: 50.0 mg/kg/injection, schedule: Q04DX003 (ip), vehicle: distilled water + Tween-80 98 % of control

O=c1[nH]c2ccccc2c2ccccc2[nH]c(=O)c2ccccc12
inactive: endpoint: mean survival time, dose: 100.0 mg/kg/injection, schedule: Q01DX001 (ip), vehicle: Klucel (hydroxypropylcellulose) (HPC) 98 % of control | endpoint: mean survival time, dose: 200.0 mg/kg/injection, schedule: Q01DX001 (ip), vehicle: Klucel (hydroxypropylcellulose) (HPC) 102 % of control | endpoint: mean survival time, dose: 400.0 mg/kg/injection, schedule: Q01DX001 (ip), vehicle: Klucel (hydroxypropylcellulose) (HPC) 102 % of control
